Values after ≈ are worked out from the molar mass of the structure shown. Values joined by “and” are separate entries in the source; they are usually repeats but may differ in a detail not shown here. Equal entries are not always repeated. Where two headings read alike, the source gives them in different places.
Tests used:
[1] = system: E. coli ATCC 25922; experiment: Resistant mutant generation by serial passage method; assay type: cell-based; details: Escherichia coli, read-out: MIC, serial passage
[2] = system: E. coli MG1655 GyrA D82N, ParC D79N; experiment: microbe, parasite or virus in culture; assay type: cell-based; details: Escherichia coli
[3] = target: T1, E. coli topoisomerase IV (Escherichia coli, UniProt P0AFI2+P20083); experiment: Topoisomerase IV cleavage-complex assay; assay type: biochemical
T1 construct: purchased Inspiralis
Method: Reactions were stopped by adding 3.8 μL of a stop solution containing 0.8 μL Proteinase K (20 mg/mL) and 3 μL SDS (2%), followed by incubation at 37 °C for 60 min. Afterward, 4 μL of STEB loading buffer was added, and samples were run on pre-stained 0.8% agarose gels containing 0.4 μg/mL ethidium bromide. […] The % nicked and linear DNA formed with varying compound concentrations was plotted for comparison.

[4] = system: K. pneumoniae BAA 2782; experiment: microbe, parasite or virus in culture; assay type: cell-based; details: Klebsiella pneumoniae, BAA2782
[5] = system: E. coli MG1655 GyrA WT, ParC D79N; experiment: microbe, parasite or virus in culture; assay type: cell-based; details: Escherichia coli
[6] = system: E. faecalis ATCC 29212; experiment: MIC broth microdilution; assay type: cell-based; details: Enterococcus faecalis, ATCC29212
[7] = target: T2, E. coli gyrase (Escherichia coli, UniProt P0AES4+P0AES6); experiment: biochemical; assay type: biochemical; details: for Gyrase supercoiling inhibition response: E. coli WT gyrase
T2 construct: purchased Inspiralis

[8] = system: E. coli MG1655 GyrA M120A, ParC M118A; experiment: microbe, parasite or virus in culture; assay type: cell-based; details: Escherichia coli
[9] = system: P. aeruginosa BAA 2797; experiment: microbe, parasite or virus in culture; assay type: cell-based; details: Pseudomonas aeruginosa, BAA2797
[10] = system: E. coli wild-type strain; experiment: MIC, wild-type strain; assay type: cell-based; details: Escherichia coli
[11] = system: K. pneumoniae; details: ref 6 (Hameed P et al., 2024); cited from earlier work
[12] = system: P. aeruginosa BAA 2794; experiment: microbe, parasite or virus in culture; assay type: cell-based; details: Pseudomonas aeruginosa, BAA2794
[13] = system: S. aureus; details: ref 6 (Hameed P et al., 2024); cited from earlier work
[14] = target: Human topo IIα (Homo sapiens, UniProt P11388); experiment: Human topo IIα decatenation assay; assay type: biochemical
Method: Human topo IIα (0.9 nM) and topo IIß (2.2 nM) decatenation assays were performed following the same protocol used for bacterial topoisomerase IV decatenation assays. The assay buffer was made of 50 mM Tris. HCl (pH 7.5), 125 mM NaCl, 10 mM MgCl2, 5 mM DTT, and 100 μg/mL albumin.

[15] = target: P. aeruginosa topoisomerase IV (Pseudomonas aeruginosa, UniProt Q9HUJ8+Q9HUK1); experiment: Topoisomerase IV decatenation assay, P. aeruginosa; assay type: biochemical; set-up: Topo IV decatenation inhibition response: unit not given here
Method: Topoisomerase IV decatenation reactions were performed using 2.5 nM E. coli enzyme and 60 ng kinetoplast DNA (kDNA) in an assay buffer containing 50 mM HEPES-KOH (pH 7.6), 100 mM potassium glutamate, 10 mM magnesium acetate, 10 mM DTT, 1 mM ATP, and 50 μg/mL albumin. Assays with P. aeruginosa topoisomerase IV (3 nM) were conducted in a similar buffer but with 50 mM HEPES-KOH (pH 7.9), 100 mM potassium glutamate, 6 mM magnesium acetate, 6 mM DTT, 1 mM ATP, 2 mM spermidine, and 50 μg/mL albumin. For S. aureus topoisomerase IV assay, the reactions contained 4 nM enzyme in an assay buffer composed of 50 mM Tris-HCl (pH 7.5), 5 mM MgCl₂, 5 mM DTT, 1.5 mM ATP, 350 mM potassium glutamate, and 0.05 mg/mL albumin. The procedures followed were consistent with those used in the supercoiling assays. Decatenated minicircles were resolved on 0.8% agarose gels, while the kDNA substrate remained in the wells. Gels were stained with 0.8 μg/mL ethidium bromide solution for 10 min, followed by destaining. DNA bands were visualized using a gel documentation system, and compound inhibition analysis was carried out using the same procedures described for the supercoiling assays.

[16] = target: E. coli GyrA M120K mutant gyrase (Escherichia coli, UniProt P0AES4+P0AES6, M120K); experiment: biochemical; assay type: biochemical; details: for Gyrase supercoiling inhibition response: GyrA M120K gyrase
[17] = system: P. aeruginosa ATCC 27853; experiment: MIC broth microdilution; assay type: cell-based; details: Pseudomonas aeruginosa, ATCC27853
[18] = system: E. coli MG1655 (GyrA WT, ParC WT); experiment: microbe, parasite or virus in culture; assay type: cell-based; details: Escherichia coli
[19] = system: E. faecium; set-up: method as in ref 6 (Hameed P et al., 2024); details: ref 6 (Hameed P et al., 2024); cited from earlier work
[20] = system: K. pneumoniae ATCC 13883; experiment: MIC broth microdilution; assay type: cell-based; details: Klebsiella pneumoniae, ATCC13883

Structure (SMILES): Cn1c(=O)ccc2ccc(F)c(CCNC[C@H]3CN(c4cnc5c(n4)NC(=O)CO5)C(=O)O3)c21 [BWC0977]
- MIC ([1]; ATCC25922, 24 h): 0.015 µg/mL (≈ 0.032 µM)
- MIC ([1]; ATCC25922, 288 h): 0.125 µg/mL (≈ 0.267 µM)
- MIC [2]: 7.5 µg/mL (≈ 16 µM)
- type of DNA breaks induced [3]: single-strand DNA breaks
- MIC [4]: 0.125 µg/mL (≈ 0.267 µM)
- MIC [5]: 0.03 µg/mL (≈ 0.064 µM)
- MIC [6]: 0.03 µg/mL (≈ 0.064 µM)
- IC50 [7]: 0.004 ± 0.001 µM
- Gyrase supercoiling inhibition response ([7]; compound 0.0003 μM, source data Fig 2A/6A, 0.0003 µM): 7.2 and 10.3 and 5.8
- Gyrase supercoiling inhibition response ([7]; compound 0.0003 μM, source data Fig 2A/6A, listed as 977, 0.0003 µM): 10.30 and 5.78
- Gyrase supercoiling inhibition response ([7]; compound 0.008 μM, source data Fig 2A/6A, 0.008 µM): 69.7 and 73.4
- Gyrase supercoiling inhibition response ([7]; compound 0.008 μM, source data Fig 2A/6A, listed as 977, 0.008 µM): 73.65 and 69.70 and 73.41
- Gyrase supercoiling inhibition response ([7]; compound 0.074 μM, source data Fig 2A/6A, 0.074 µM): 93.3 and 92.7
- Gyrase supercoiling inhibition response ([7]; compound 0.074 μM, source data Fig 2A/6A, listed as 977, 0.074 µM): 89.29 and 93.34 and 92.67
- Gyrase supercoiling inhibition response ([7]; compound 0.222 μM, source data Fig 2A/6A, 0.222 µM): 96.5 and 97.7 and 91.5
- Gyrase supercoiling inhibition response ([7]; compound 0.222 μM, source data Fig 2A/6A, listed as 977, 0.222 µM): 97.67 and 91.52
- Gyrase supercoiling inhibition response ([7]; compound 2 μM, source data Fig 2A/6A, 2 µM): 100.2 and 100.3 and 98.6
- Gyrase supercoiling inhibition response ([7]; compound 2 μM, source data Fig 2A/6A, listed as 977, 2 µM): 100.30 and 98.60
- higher inhibition potency compared to compound 17a ([7]; E. coli gyrase): ~ 20 fold
- inhibition at 0.0003 µM ([7]; read-out: Gyrase supercoiling inhibition response, E. coli WT gyrase, compound 0.0003 μM, source data Fig 2A/6A): 7.23%
- inhibition at 0.008 µM ([7]; read-out: Gyrase supercoiling inhibition response, E. coli WT gyrase, compound 0.008 μM, source data Fig 2A/6A): 73.7%
- inhibition at 0.074 µM ([7]; read-out: Gyrase supercoiling inhibition response, E. coli WT gyrase, compound 0.074 μM, source data Fig 2A/6A): 89.3%
- inhibition at 0.222 µM ([7]; read-out: Gyrase supercoiling inhibition response, E. coli WT gyrase, compound 0.222 μM, source data Fig 2A/6A): 96.5%
- inhibition at 2 µM ([7]; read-out: Gyrase supercoiling inhibition response, E. coli WT gyrase, compound 2 μM, source data Fig 2A/6A): 100%
- MIC [8]: 0.0625 µg/mL (≈ 0.133 µM)
- MIC [9]: 0.25 µg/mL (≈ 0.534 µM)
- MIC [10]: 0.01 µg/mL (≈ 0.0213 µM)
- MIC90 against diverse global isolates [11]: 2 µg/mL (≈ 4.27 µM)
- MIC [12]: 0.125 µg/mL (≈ 0.267 µM)
- MIC90 against diverse global isolates [13]: 0.03 µg/mL (≈ 0.064 µM)
- selectivity for bacterial enzymes over human topoisomerases IIα and IIβ [14]: more than 5000 fold
- IC50 ([14]; read-out: IC50 Human topo IIα decatenation): 113 ± 13 µM
- IC50 [15]: 0.077 µM
- Topo IV decatenation inhibition response ([15]; P. aeruginosa topo IV, compound 0.0114 μM, source data Fig 2B, listed as 977, 0.0114 µM): 7.06
- inhibition at 0.0114 µM ([15]; P. aeruginosa topo IV, compound 0.0114 μM, source data Fig 2B, read-out: Topo IV decatenation inhibition response): 10.9%
- Topo IV decatenation inhibition response ([15]; P. aeruginosa topo IV, compound 0.0343 μM, source data Fig 2B, listed as 977, 0.0343 µM): 24.14
- inhibition at 0.0343 µM ([15]; P. aeruginosa topo IV, compound 0.0343 μM, source data Fig 2B, read-out: Topo IV decatenation inhibition response): 18.9%
- Topo IV decatenation inhibition response ([15]; P. aeruginosa topo IV, compound 0.1029 μM, source data Fig 2B, listed as 977, 0.1029 µM): 63.17
- inhibition at 0.1029 µM ([15]; P. aeruginosa topo IV, compound 0.1029 μM, source data Fig 2B, read-out: Topo IV decatenation inhibition response): 61.6%
- Topo IV decatenation inhibition response ([15]; P. aeruginosa topo IV, compound 0.3086 μM, source data Fig 2B, listed as 977, 0.3086 µM): 85.90
- inhibition at 0.3086 µM ([15]; P. aeruginosa topo IV, compound 0.3086 μM, source data Fig 2B, read-out: Topo IV decatenation inhibition response): 88.3%
- Topo IV decatenation inhibition response ([15]; P. aeruginosa topo IV, compound 0.9259 μM, source data Fig 2B, listed as 977, 0.9259 µM): 91.28
- inhibition at 0.9259 µM ([15]; P. aeruginosa topo IV, compound 0.9259 μM, source data Fig 2B, read-out: Topo IV decatenation inhibition response): 91.1%
- Topo IV decatenation inhibition response ([15]; P. aeruginosa topo IV, compound 2.7778 μM, source data Fig 2B, listed as 977, 2.7778 µM): 91.48
- inhibition at 2.7778 µM ([15]; P. aeruginosa topo IV, compound 2.7778 μM, source data Fig 2B, read-out: Topo IV decatenation inhibition response): 94.5%
- Topo IV decatenation inhibition response ([15]; P. aeruginosa topo IV, compound 8.3333 μM, source data Fig 2B, listed as 977, 8.3333 µM): 92.85
- inhibition at 8.3333 µM ([15]; P. aeruginosa topo IV, compound 8.3333 μM, source data Fig 2B, read-out: Topo IV decatenation inhibition response): 97.1%
- Topo IV decatenation inhibition response ([15]; P. aeruginosa topo IV, compound 25 μM, source data Fig 2B, listed as 977, 25 µM): 94.54
- inhibition at 25 µM ([15]; P. aeruginosa topo IV, compound 25 μM, source data Fig 2B, read-out: Topo IV decatenation inhibition response): 99.2%
- IC50 ([16]; Fig. 6, read-out: IC50 M120K gyrase supercoiling): 116 µM
- Gyrase supercoiling inhibition response ([16]; compound 4.444 µM, source data Fig 6A/6B, 4.444 µM): 22.36 and 14.93
- Gyrase supercoiling inhibition response ([16]; compound 13.333 µM, source data Fig 6A/6B, 13.333 µM): 30.98 and 24.28
- Gyrase supercoiling inhibition response ([16]; compound 40 µM, source data Fig 6A/6B, 40 µM): 42.55 and 34.32
- Gyrase supercoiling inhibition response ([16]; compound 120 µM, source data Fig 6A/6B, 120 µM): 58.34 and 49.21
- reduction in inhibition potency compared to wildtype gyrase ([16]; GyrA M120K vs WT): > 500 fold
- inhibition at 4.444 µM ([16]; read-out: Gyrase supercoiling inhibition response, GyrA M120K gyrase, compound 4.444 µM, source data Fig 6A/6B): 20.2%
- inhibition at 13.333 µM ([16]; read-out: Gyrase supercoiling inhibition response, GyrA M120K gyrase, compound 13.333 µM, source data Fig 6A/6B): 27.2%
- inhibition at 40 µM ([16]; read-out: Gyrase supercoiling inhibition response, GyrA M120K gyrase, compound 40 µM, source data Fig 6A/6B): 34.7%
- inhibition at 120 µM ([16]; read-out: Gyrase supercoiling inhibition response, GyrA M120K gyrase, compound 120 µM, source data Fig 6A/6B): 56.3%
- MIC [17]: 0.125 µg/mL (≈ 0.267 µM)
- MIC [18]: 0.03 µg/mL (≈ 0.064 µM)
- MIC90 against diverse global isolates [19]: 0.12 µg/mL (≈ 0.256 µM)
- MIC [20]: 0.06 µg/mL (≈ 0.128 µM)

Source: paper PMC12647645, “Structural interactions of BWC0977 with Klebsiella pneumoniae topoisomerase IV and biochemical basis of its broad-spectrum activity” (Communications Biology, 2025)
